The values that follow come from patent US10351586B2, “Cytidine derivative dimers and applications thereof” (CHANGZHOU FANGYUAN PHARMACEUTICAL CO., LTD, priority 2014, dated 2019).

The structures appear in SMILES notation.

The assay concerns HCT-116 human colon cancer cells. Briefly: Colony formation inhibition test on HCT-116 human colon cancer cells. The format is cell-based. As to conditions: for Number of cell clones on HCT-116, mean / inhibition at 0.05 µM / inhibition at 0.15 µM / inhibition at 0.45 µM: 72 h treatment, then 7-10 days; for inhibition at 0.05 µM / inhibition at 0.15 µM / inhibition at 0.45 µM / IC50: Homo sapiens; for inhibition at 0.05 µM / inhibition at 0.15 µM / inhibition at 0.45 µM: HCT-116, read-out: % inhibition (colony formation inhibition rate); for IC50: HCT-116 cells, dose-response 50, 150, 450 nM, read-out: IC50 value (colony formation inhibition, FIG. 7). The protocol: 1. The colony formation inhibition test was used to evaluate the effect of four exemplary candidate compounds (D1, D2, D3, and D4) having concentrations of 50 nM, 150 nM and 450 nM on inhibiting cell proliferation of HCT-116 human colon cancer cells line.
2. Experiment material includes cell lines. HCT-116 human colon cancer cell line was purchased from the Chinese Academy of Sciences Shanghai Cell Resource Center, Cat # TCHu 99.
3. Reagent preparation includes HCT-116 human colon cancer cell culture medium, e.g., Dulbecco's Modified Eagle's medium (DMEM) medium with 10% fetal bovine serum (FBS). Compound solutions were prepared by dissolving and diluting the above synthesized compounds in dimethyl sulfoxide (DMSO) to a final concentration of about 100 μM.
Cell staining solution was prepared including 0.5% crystal violet solution prepared using absolute or anhydrous ethanol, and stored in dark. Before staining, the solution was mixed with phosphate buffered saline (PBS) buffer solution by volume ratio of 1:4 as the cell staining solution.
4. Cell culture: cells in logarithmic growth phase were collected, counted, and resuspended in complete culture medium. The cell concentration was adjusted to an appropriate concentration, 6-well culture plates were seeded, with about 300 cells and 1.8 mL of culture medium in each well. Cells were incubated for about 5 hours in an incubator at about 37° C. and about 100% relative humidity and under 5% CO2.
5. Cell colony formation inhibition test and data processing were performed including, for example, (a)-(i) as follows.
(a) Cells in logarithmic growth phase were collected and counted. The cells were re-suspended in culture medium containing 5% FBS, and counted. Six-well plates were seeded according to a rate of 300 cells per well. Cells were incubated for about 5 hours in an incubator at about 37° C. with 100% relative humidity and under 5% CO2.
(b) The compounds were diluted with culture medium (containing 5% FBS) to be concentrations of about 0.5 μM, 1.5 μM and 4.5 μM. Adding the compounds to cells in 200 μL per well, the final concentrations of the compounds were about 50 nM, 150 nM and 450 nM. Each concentration point was repeatedly tested for three times.
(c) Cells were incubated for about 72 hours in an incubator at 37° C. with 100% relative humidity and under 5% CO2. (d) The culture medium from the plates (the culture medium containing the compound(s) was aspirated. The plates were rinsed with Hank's Balance Salt Solution (HBSS) twice, and replaced with fresh culture medium (DMEM medium with 15% FBS).
(e) Cells were incubated for about 7-10 days in an incubator at about 37° C. and 100% relative humidity and under 5% CO2, until the formation of visible cloned plaques. (f) The culture medium was aspirated from the plates. The plates were rinsed twice with PBS solution. (g) The residual PBS was absorbed and removed, and ethanol was added at 1 mL per plate, fixing for 30 minutes.
(h) Ethanol was absorbed and removed, and cell staining solution was added, stained for 3 minutes. (i) The staining solution was aspirated. After rinsing three times with PBS, the cells were counted.
Data processing was performed. Cloning formation efficiency=[As/Ac]×100%; and colony formation inhibition rate=1−cloning formation efficiency, where As denotes number of cell colonies in compound-treated group (cells+compounds to be tested), and Ac denotes number of cell colonies in negative control (without treating with compound) (cells+1% DMSO).

For the compound `CCCCOC(=O)Nc1ccn(C2OC(COC(=O)CCC(=O)OC[C@H]3O[C@@H](n4ccc(NC(=O)OCc5ccccc5)nc4=O)C(F)(F)[C@@H]3O)C(O)C2(F)F)c(=O)n1` (stereo in doubt) [Compound D4, 1-O-(4-N-(Benzyloxycarbonyl)-gemcitabine)-4-O-(4-N-(n-Butoxycarbonyl)-gemcitabine)-succinate], the IC50 is ~0.112 µM. For the same compound, for the setting “50 nM”, the “Number of cell clones on HCT-116, mean” value came to 235 and the inhibition at 0.05 µM came to 8.2%. For the setting “150 nM”, the “Number of cell clones on HCT-116, mean” value stood at 75 and the inhibition at 0.15 µM worked out at 70.7%. Further, for the setting “450 nM”, the “Number of cell clones on HCT-116, mean” value is 11 and the inhibition at 0.45 µM is 95.7%.

On to `O=C(CCCC(=O)OC[C@H]1O[C@@H](n2ccc(NC(=O)OCc3ccccc3)nc2=O)C(F)(F)[C@@H]1O)OC[C@H]1O[C@@H](n2ccc(NC(=O)OCc3ccccc3)nc2=O)C(F)(F)[C@@H]1O` [Compound D3, 1,5-di-[4-N-(benzyloxycarbonyl)-2′-deoxy-2′,2′-difluoro-cytidine]glutarate], for which the IC50 was ~0.0998 µM. Further, under “50 nM”, the “Number of cell clones on HCT-116, mean” value worked out at 237 and the inhibition at 0.05 µM came to 1.66%. In addition, where the note is “150 nM”, the “Number of cell clones on HCT-116, mean” value came out at 20 and the inhibition at 0.15 µM is 91.7%. Moreover, under “450 nM”, the “Number of cell clones on HCT-116, mean” value was 4 and the inhibition at 0.45 µM is 98.3%.

Turning to `CCCCOC(=O)Nc1ccn(C2OC(COC(=O)CCCC(=O)OC[C@H]3O[C@@H](n4ccc(NC(=O)OCCCC)nc4=O)C(F)(F)[C@@H]3OC(=O)OCCCC)C(OC(=O)OCCCC)C2(F)F)c(=O)n1` (stereo in doubt) [Compound D1, 1,5-di-[4-N-(n-butyloxycarbonyl)-3′-O-(n-butoxycarbonyl)-2′-deoxy-2′,2′-difluoro-cytidine]glutarate], the IC50 was ~0.245 µM. Besides, where the note is “50 nM”, the “Number of cell clones on HCT-116, mean” value amounted to 242 and the inhibition at 0.05 µM worked out at 3.58%. Also, where the note is “150 nM”, the “Number of cell clones on HCT-116, mean” value is listed as 188 and the inhibition at 0.15 µM was found to be 25.1%. Also, for the setting “450 nM”, the “Number of cell clones on HCT-116, mean” value turned out to be 52 and the inhibition at 0.45 µM stood at 79.3%.

For `CCCCOC(=O)Nc1ccn([C@H]2O[C@@H](COC(=O)CCC(=O)OC[C@H]3O[C@@H](n4ccc(NC(=O)OCCCC)nc4=O)C(F)(F)[C@@H]3O)[C@H](O)C2(F)F)c(=O)n1` (stereo in doubt) [Compound D2, 1,5-di-[4-N-(n-butoxycarbonyl)-2′-deoxy-2′,2′-difluoro-cytidine]glutarate], the IC50 is ~0.227 µM. Also, under “50 nM”, the “Number of cell clones on HCT-116, mean” value is 243 and the inhibition at 0.05 µM was found to be 4.7%. Where the note is “150 nM”, the “Number of cell clones on HCT-116, mean” value was 191 and the inhibition at 0.15 µM came to 25.1%. Where the note is “450 nM”, the “Number of cell clones on HCT-116, mean” value amounted to 36 and the inhibition at 0.45 µM was 85.9%.

As usually defined, the inhibition is how much of the control response was suppressed. Broadly, the IC50 is the concentration that inhibits the measured activity by half.
